Reference: ChEMBL document CHEMBL1122888, “22-Hydroxycholesterol derivatives as HMG CoA reductase suppressors and serum cholesterol lowering agents” (1985)

What was measured:
[1] = system: Monkey; test: Evaluated for serum lipoprotein HDL levels in the 14 day treated rhesus monkey at dose (10 mg/kg/day, ig) over a 2-week period; assay type: functional, Cercopithecidae; design: reference not given here
[2] = system: Monkey; test: Evaluated for serum cholesterol VLDL levels in the 14 day treated monkey at dose (10 mg/kg/day, ig) over a 2-week period; assay type: functional, Cercopithecidae
[3] = system: Monkey; test: Evaluated for serum lipoprotein LDL levels in the 14 day treated monkey at dose (10 mg/kg/day, ig) over a 2-week period; assay type: functional, Cercopithecidae; design: reference not given here
[4] = molecular target: T1, 3-hydroxy-3-methylglutaryl-coenzyme A reductase (Homo sapiens) (UniProt P04035); test: Evaluated for serum cholesterol levels in the 14 day treated rhesus monkeys at dose (10 mg/kg/day, ig) over a 2-week period; assay type: functional, organism-based; conditions: Cercopithecidae; target entry is the homologue from another species
T1 sequence (whole entry): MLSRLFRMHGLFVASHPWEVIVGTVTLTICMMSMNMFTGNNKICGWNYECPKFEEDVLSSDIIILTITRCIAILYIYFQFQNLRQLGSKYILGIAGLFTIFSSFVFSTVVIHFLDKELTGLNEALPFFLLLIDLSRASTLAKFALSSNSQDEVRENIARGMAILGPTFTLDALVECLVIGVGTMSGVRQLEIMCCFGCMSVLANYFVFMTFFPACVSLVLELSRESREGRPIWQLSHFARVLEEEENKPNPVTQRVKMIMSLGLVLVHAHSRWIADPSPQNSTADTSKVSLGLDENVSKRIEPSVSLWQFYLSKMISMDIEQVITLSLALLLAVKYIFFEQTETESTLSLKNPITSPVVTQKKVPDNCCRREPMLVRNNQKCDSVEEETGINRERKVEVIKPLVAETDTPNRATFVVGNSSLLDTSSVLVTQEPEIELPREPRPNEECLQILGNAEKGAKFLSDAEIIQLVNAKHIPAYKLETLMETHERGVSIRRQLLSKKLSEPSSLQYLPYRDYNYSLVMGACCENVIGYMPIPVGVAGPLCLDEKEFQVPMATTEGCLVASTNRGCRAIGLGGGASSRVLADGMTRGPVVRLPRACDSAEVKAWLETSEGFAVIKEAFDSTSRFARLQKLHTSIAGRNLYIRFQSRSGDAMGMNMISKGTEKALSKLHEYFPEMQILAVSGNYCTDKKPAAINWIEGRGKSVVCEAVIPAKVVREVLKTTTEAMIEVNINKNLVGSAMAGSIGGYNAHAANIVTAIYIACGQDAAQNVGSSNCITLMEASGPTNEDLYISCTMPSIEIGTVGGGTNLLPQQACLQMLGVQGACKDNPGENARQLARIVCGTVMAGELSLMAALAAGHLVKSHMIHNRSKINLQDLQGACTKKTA

[5] = organism: Rattus norvegicus; test: Minimum effective dose necessary to produce >=25% decrease of elevated liver HMG CoA reductage levels; assay type: functional; conditions: read-out: MED
[6] = system: HMG-CoA reductase (Rattus norvegicus); test: Evaluated for the percent suppression of elevated liver HMG-CoA reductase in Diazoesterol treated rats
[7] = molecular target: T1, 3-hydroxy-3-methylglutaryl-coenzyme A reductase (Homo sapiens); test: Evaluated in human fibroblast tissue culture assays for suppression of HMG-CoA reductase at concentration of 1 ug/mL.
[8] = molecular target: T1, 3-hydroxy-3-methylglutaryl-coenzyme A reductase (Homo sapiens); test: Evaluated for serum cholesterol levels in the 14 day treated primate (male rhesus monkeys) at dose (10 mg/kg/day, ig) over a 2-week period; assay type: functional, organism-based; conditions: Cercopithecidae; target entry is the homologue from another species
[9] = organism: Rattus norvegicus; test: Minimum effective dose necessary to produce >=25% decrease of elevated liver HMG CoA reductage levels in diazasterol treated rats; assay type: functional; conditions: read-out: MED

C[C@H](C(O)CCC(C)(C)Cl)C1CCC2C3CC=C4CC(O)CCC4(C)C3CCC21C (stereo partly drawn)
Lipoprotein level [1]: 70% | cholesterol level [2]: 4 mg/dL | Lipoprotein level [3]: 22% | cholesterol level [4]: 168 mg/dL | minimal effective dose [5]: 0.2 mg/kg | Suppression [6]: 28%

C[C@H](C(O)CCC1CC1)C1CCC2C3CC=C4CC(O)CCC4(C)C3CCC21C (stereo partly drawn)
inhibition [7]: > 95% | Lipoprotein level [1]: 68% | cholesterol level [2]: 4 mg/dL | Lipoprotein level [3]: 23% | cholesterol level [4]: 179 mg/dL | minimal effective dose [5]: 0.5 mg/kg | Suppression [6]: 30%

C[C@H](C(O)CCC(C)(C)F)C1CCC2C3CC=C4CC(O)CCC4(C)C3CCC21C (stereo partly drawn)
inhibition [7]: > 95% | Lipoprotein level [1]: 61% | cholesterol level [2]: 8 mg/dL | Lipoprotein level [3]: 25% | cholesterol level [4]: 150 mg/dL | minimal effective dose [5]: 0.5 mg/kg | Suppression [6]: 26%

C[C@H](C(O)CCC(C)(C)C)C1CCC2C3CC=C4CC(O)CCC4(C)C3CCC21C (stereo partly drawn)
inhibition [7]: 95% | Lipoprotein level [1]: 66% | cholesterol level [2]: 6 mg/dL | Lipoprotein level [3]: 25% | cholesterol level [8]: 167 mg/dL | minimal effective dose [9]: 0.5 mg/kg | Suppression [6]: 39%

CC(C)CCC(O)[C@@H](C)[C@H]1CC[C@H]2[C@@H]3CC=C4C[C@@H](O)CC[C@]4(C)[C@H]3CC[C@]12C (stereo partly drawn)
minimal effective dose [5]: > 30 mg/kg
